The text below walks through data of patent publication US20230067644A1, “DRG-MDM2-3 FOR USE AS A NOVEL MOUSE DOUBLE MINUTE 2 (MDM2) INHIBITOR” (BAHCESEHIR UNIVERSITESI, priority 2020, published 2023).

The subject of one experiment is MDA-MB231 cell lines. Description: MTT cell viability assay (IC50). To be noted: Homo sapiens, MDA-MB-231, single dose of treatment, 10^-9 to 10^-4 M, absorbance 570 nm. In kind it is cell-based. As to the method:
(§1) HCT 116 colon cancer and MDA-MB231 breast cancer cell lines are used in cell culture experiments.
Cells were treated with high-glucose DMEM medium (Biosera) supplemented with 10% FBS (Gibco) and 1× penicillin/streptomycin (Multicell). The assay was designed to contain 10,000 cells for each well of 24-well cell culture plates before being treated with inhibitors.
Compound of formula I was dissolved with DMSO as 20 mM stock. 24 hours later, the solution was diluted in DMEM with 10% FBS and final concentration of vehicle DMSO was 0.5% at maximum. Therefore, the vehicle group included 0.5% DMSO concentration in experiments. Intensive cultivation of cells causes a decrease in proliferation capacity.
The MTT cell viability assay was used to detect values of half-maximal inhibitory concentration (IC50). Different concentrations of compound of formula I ranging between 10^−9 to 10^−4 M were tested on MDA-MB231 cell lines with single dose of treatment. 570 nm absorbance values were recorded and IC50 values were calculated by dose response—inhibition curves and nonlinear regression analysis on Graphpad Prism 8 software.

Experiment [1] relates to HCT-116 cells. Description: MTT cell proliferation assay. In kind it is cell-based. To be noted: Homo sapiens, HCT-116, 100 μM, read-out: cell viability decreased. Here is the method:
as §1
For proliferation inhibition analysis, cells were seeded in 24 well plates at 1×10^4 cells/well cells overnight without drug treatment. During the cell proliferation experiments, we performed five days of treatment in each cell line and repeated the experiments three times to check each experiment. No significant difference in cell viability was observed after the third day. Therefore, cells with different drug concentrations were treated for two days. After 48 hours, MTT was applied to the cells and incubated at 37° C. for 4 hours, formazan was solubilized with DMSO (Sigma-Aldrich, St. Louis, USA) and absorbance was measured at 570 nm.
Molecule concentration was 100 μM, the lower concentrations were not shown. Vehicle represents the groups treated with only %0,5 DMSO and Untreated represents no molecule treated group. Molecule responses were evaluated by cell viability which is obtained by spectrophotometric analysis of cells upon MTT treatment at 12 h, 24 h, 48 h and 72 h. […] Statistical significance in graphs was determined by comparing each treatment group with DMSO control using ANOVA testing and significance is considered as p<0.001 (FIG. 2).
As a result, cell viability decreased by 40% at the end of the first day and reached 60% at the end of the third day. […]

Experiment [2] concerns HCT-116 cells. The experiment can be described thus: Microscopic evaluation of cells (proliferation, apoptotic morphology). The class given is cell-based. Here is the method:
Cells were photographed and observed under microscope for three days.
As a result, cell viability decreased by 40% at the end of the first day and reached 60% at the end of the third day. Any cell proliferation change and apoptotic cell morphology were not observed in the untreated and vehicle groups. Moreover, differences in cell morphology were also observed. […] Upon treatment with the compound of formula I according to present invention with 100 μM concentration, cells having the morphology of apoptotic cells were observed starting from the 3rd hour.

A further experiment addresses MDM2 protein (Homo sapiens, UniProt Q00987). To be noted: background statement; cited from earlier work.

Where two headings read alike, the source gives them in different places.

Chain of MDM2 protein (Q00987 whole entry, species assumed): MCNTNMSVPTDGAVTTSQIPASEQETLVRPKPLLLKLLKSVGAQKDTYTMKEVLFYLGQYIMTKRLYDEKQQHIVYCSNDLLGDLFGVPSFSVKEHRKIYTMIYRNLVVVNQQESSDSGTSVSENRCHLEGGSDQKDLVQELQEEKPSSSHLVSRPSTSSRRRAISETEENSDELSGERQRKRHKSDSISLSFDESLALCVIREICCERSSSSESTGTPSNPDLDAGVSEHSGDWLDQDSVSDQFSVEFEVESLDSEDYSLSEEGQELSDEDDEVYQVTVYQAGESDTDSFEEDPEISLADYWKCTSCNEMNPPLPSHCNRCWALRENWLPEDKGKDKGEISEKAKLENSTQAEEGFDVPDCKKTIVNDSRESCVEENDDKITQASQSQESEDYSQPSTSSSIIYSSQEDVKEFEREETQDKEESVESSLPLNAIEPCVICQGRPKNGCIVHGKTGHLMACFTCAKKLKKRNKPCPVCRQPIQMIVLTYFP

In the experiment with MDA-MB231 cell lines, `O=C(CCc1ccccc1Cl)NC(CC1CNc2ccccc21)C(=O)O` (stereo not shown) [compound of formula I] came in with an IC50 of 41 µM. The cytotoxicity at 100 µM amounted to 40% in the experiment on HCT-116 cells [1] (at the end of the first day) and 60% in the experiment on HCT-116 cells [1] (at the end of the third day). The “hour from which cells having the morphology of apoptotic cells were observed” value in the experiment on HCT-116 cells [2] (100 μM concentration) came to 3 hour. Besides, the “apoptotic activity (onset, microscopy)” value in the experiment with HCT-116 cells [2] (FIG. 3) is given as “clear apoptotic activity from the twelfth hour”. The “proliferation and cell structures under microscope” value with HCT-116 cells [2] (observed for three days, vs vehicle and untreated, FIG. 3) is “reduced proliferation and showed apoptotic cell structures”.
With MI-319, on MDM2 protein, the “binding affinity to MDM2 protein relative to a natural p53 peptide” value is recorded as 500 fold.
